# From US20140114067A1, “BENZIMIDAZOLE DERIVATIVES AS MITOCHONDRIAL FUNCTION MODULATORS” (KOREA INSTITUTE OF SCIENCE AND TECHNOLOGY, priority 2012, published 2014)
# What was measured:
# HT-22 cells [1] = test: Improvement in mitochondrial membrane potential dropped by amyloid beta (JC-1 dye); format: cell-based; conditions: compound 5 μM, amyloid beta 5 μM, 3 hours, JC-1 green:red ratio, amyloid beta damage = 0%, normal = 100%
# Protocol: (§1) Meanwhile, the compound represented by Formula 1 according to the present invention is evaluated through a test to determine recovery of mitochondrial functions damaged by amyloid beta, as described in the following Test Example. After the test, the results are shown in terms of the percentages of mitochondrial function disorder caused by amyloid beta. The degree of mitochondrial function disorder caused by amyloid beta is taken as 0% and the normal condition in the absence of amyloid beta is shown as 100%.
# To a transparent 96-well plate, HT-22 cells are inoculated in a number of 30,000 per well one day before the test. On the next day, JC-1 dye (Stratagen, USA) is diluted with Opti-MEM containing no phenol red to a concentration of 7.5 μM, and the resultant dilution is used to treat the cells for 1 hour and 15 minutes. The dyed cells are washed twice with phosphate buffer solution (PBS), followed by treatment with each compound to a final concentration of 5 μM per well. Then, the cells are cultured at 37° C. for 10 minutes. Particularly, for each drug, two wells are treated with amyloid beta (5 μM) and the other two wells are treated with the vehicle control (5 μM DMSO). Then, the cells are cultured at 37° C. for 3 hours. The fluorescence intensity of each well is read by using a fluorescence plate reader at 485/535 nm (green/J-monomer) and 560/595 nm (red/J-aggregate). Then, the ratio of green:red is calculated and the results are normalized by taking the change of the ratio between addition of amyloid beta and no-addition of amyloid beta in the vehicle control non-treated with drugs as 100%.
# HT-22 cells [2] = test: Recovery of ATP production capability reduced by amyloid beta (luciferin/luciferase); format: cell-based; conditions: compound 5 μM, amyloid beta 5 μM, 7 hours, amyloid beta vehicle control without drug = 0%
# Protocol: as §1
# To a transparent 96-well plate, HT-22 cells are inoculated in a number of 10,000 per well one day before the test, followed by treatment with each compound to a final concentration of 5 μM per well. The cells are cultured at 37° C. for 10 minutes. Particularly, for each drug, two wells are treated with amyloid beta (5 μM) and the other two wells are treated with the vehicle control (5 μM DMSO). After the treatment, the cells are cultured at 37° C. for 7 hours. The cells treated with each drug are washed twice with PBS, lysed with Triton X-100 (1% in TSBT buffer) and agitated at room temperature for 5 minutes. […] is used to determine the protein amount of each well, and the same amount of protein taken from each well is added to a white 96-well plate. Then, […] (Molecular Probe, USA) for ATP determination containing d-luciferin and luciferase is added thereto and emission peaks generated from each of the wells are determined. After the determination, the peaks are normalized by taking the vehicle control to which amyloid beta is added without treatment with any drug as 0%.
structure (smiles),measurement,setting,value
"Cc1ccc(C(C)C)cc1NC(=O)Cn1c(Cc2c(Cl)cccc2Cl)nc2ccccc21 [Compound 23, 2-(2-(2,6-dichlorobenzyl)-1H-benzo[d]imidazol-1-yl)-N-(5-isopropyl-2-methylphenyl)acetamide]",Improvement in Membrane Potential (%) (5 μM),HT-22 cells [1],74%
same,ATP Production Capability Recovery (%) (5 μM),HT-22 cells [2],95%
"Cc1ccc(C(C)C)cc1NC(=O)Cn1c(-c2cc(Cl)ccc2Cl)nc2ccc(Cl)cc21 [Compound 25, 2-(6-chloro-2-(2,5-dichlorophenyl)-1H-benzo[d]imidazol-1-yl)-N-(5-isopropyl-2-methylphenyl)acetamide]",Improvement in Membrane Potential (%) (5 μM),HT-22 cells [1],87%
same,ATP Production Capability Recovery (%) (5 μM),HT-22 cells [2],69%
"CCN1CCCC1CNC(=O)c1ccc(Cn2c(Cc3c(Cl)cccc3Cl)nc3ccccc32)cc1 (stereo not shown) [Compound 32, 4-((2-(2,6-dichlorobenzyl)-1H-benzo[d]imidazol-1-yl)methyl)-N-((1-ethylpyrrolidin-2-yl)methyl)benzamide]",Improvement in Membrane Potential (%) (5 μM),HT-22 cells [1],90%
same,ATP Production Capability Recovery (%) (5 μM),HT-22 cells [2],51%
"CN(C)CCCNC(=O)c1ccc(Cn2c(Cc3c(Cl)cccc3Cl)nc3ccccc32)cc1 [Compound 34, 4-((2-(2,6-dichlorobenzyl)-1H-benzo[d]imidazol-1-yl)methyl)-N-(3-(dimethylamino)propyl)benzamide]",Improvement in Membrane Potential (%) (5 μM),HT-22 cells [1],82%
same,ATP Production Capability Recovery (%) (5 μM),HT-22 cells [2],85%
"O=C(NCCCN1CCCCC1)c1ccc(Cn2c(Cc3c(Cl)cccc3Cl)nc3ccccc32)cc1 [Compound 37, 4-((2-(2,6-dichlorobenzyl)-1H-benzo[d]imidazol-1-yl)methyl)-N-(3-(piperidin-1-yl)propyl)benzamide]",Improvement in Membrane Potential (%) (5 μM),HT-22 cells [1],90%
same,ATP Production Capability Recovery (%) (5 μM),HT-22 cells [2],64%
